According to the NIST ThermoML archive (doi:10.1016/j.jct.2018.01.019):
Numbers after ± are expanded uncertainties.

Conditions: Crystal 2; DSC

Triple point temperature: 848 ± 2 K
Structure (SMILES): O=[Si]=O [silicon dioxide]
